Here are results for two substances from PMC10610885, “Discovery of an Insect Neuroactive Helix Ring Peptide from Ant Venom” (Toxins, 2023).

For data set [1] the following is noted: cited from earlier work. As to the method:
Table 2 Neuroactivity of ant venom peptides on blowfly species (Lucilia spp.) ranked by PD50 values 1 h post injection. | column: Cytotoxicity

Data set [2] concerns blowfly Lucilia caesar. Particulars: L. caesar, 1 h post injection; cited from earlier work. As to the method:
Table 2 Neuroactivity of ant venom peptides on blowfly species (Lucilia spp.) ranked by PD50 values 1 h post injection. | column: PD50 [1 h] *

In data set [3] the test system is honeybees (Apis mellifera). Nature of the data set: Honeybee paralytic assay, intrathoracic injection. Type of data set: in vivo. As to conditions: A. mellifera, n = 3. As to the method:
In this study, we screened the neurotoxic activity of U11 when injected into a panel of beneficial and pest insects such as honeybees, blowflies, and aphids. Blowfly is a dipteran model commonly used to evaluate the insecticidal potency of venom peptides. Blowfly maggots (Lucilia caesar) were bought from a fisheries shop (Euroloisir81, Lescure-d’Albigeois, France) and were kept at 25 °C until hatching. Flies 1–4 days post hatching were used for the injection assays. Honeybee (Apis mellifera) is a model of choice to assess the impact of a toxin against beneficial insects such as pollinators. The honeybee colonies used in this study belong to the Buckfast breed and were maintained at the University Champollion campus in Albi. Adult foraging honeybees were individually isolated in plastic vials and immediately injected. […] Paralytic activity was monitored at 1 h and 24 h after injection while lethality was monitored only at 24 h. […] Dose–response data were analyzed as detailed by Touchard et al.. […] Aphids were monitored daily for 7 days after injection and their survival and behavior regularly checked, following the protocol developed by Ribeiro Lopes et al.. […]

A further data set has as its system Sitophilus oryzae. Nature of the data set: Weevil toxicity test by ingestion. It counts as in vivo. Particulars: S. oryzae, 800 μg/g of feed, two weeks. As to the method:
S. oryzae toxicity tests were performed with the WAA42 strain as described previously. Briefly, the insects used for the bioassays were adults 2 to 3 weeks of age collected in one week experimental cohorts and placed in batches of 30 individuals on feed pellets containing the synthetic U11 tested in a whole grain-based diet. The tested concentration of the U11 was 800 μg/g of the feed. Bioactivity was assessed by daily insect survival during the first two weeks of contact with the test diet (27.5 °C, 70% room humidity) and by standard survival analysis.

The test system of data set [4] is S2 cells. Nature of the data set: Intracellular Ca2+ mobilization, Fluo-4/AM probe. Type of data set: cell-based, Drosophila. Particulars: 10 µM, 1 h preincubation, thapsigargin 2 µM then CaCl2 1.8 mM. As to the method: (§1) The embryonic S2 Drosophila cell line (Thermofisher, Waltham, MA, USA) was maintained in Schneider’s insect medium (Sigma-Aldrich, Saint Louis, MO, USA) complemented with 10% heat-inactivated fetal bovine serum (FBS) (Sigma-Aldrich) and 1% Penicillin/Streptomycin (Sigma-Aldrich) at 25 °C without CO2 on TC-treated support (Corning®, Glendale, AZ, USA). The FBS was heat inactivated at 60 °C for 45 min. The cells were passaged every two days at about 90% confluence.
The [Ca^2+]i mobilization was measured with the Fluo-4/AM probe using the imaging reader Cytation 1 (BioTek, Agilent). Then, 6 × 10^5 S2 cells/mL were plated on glass-bottom Petri dishes and allowed to adhere for 24 h before experiments. Cells are incubated with 2 µM of Fluo-4/AM in cell culture medium with 2.5 mM probenecid for 1 h at 25 °C with 10 µM of U11 peptide. Then, cells were rinsed twice in Ca^2+-free buffer containing (in mM) 120 NaCl, 5 KCl, 4 MgCl2, 32.2 Sucrose, 10 HEPES, 0.1 EGTA, 2.5 probenecide (pH 7.2), incubated in Ca^2+-free buffer, and processed for measurement of cytoplasmic Ca^2+ concentration. […] Cell fluorescence was analyzed with CALIMA [59] […] Changes in the Ca^2+ cytosolic concentration were calculated from changes of fluorescence relative to time 0 (F = Ft/Ft0 (fluorescence at time = t/time = 0)).
For orientation: Calcium flux is commonly read through the fluorescence of an indicator in the cells.

Data set [5] relates to S2 Drosophila embryonic cell line. Nature of the data set: CCK-8 cytotoxicity assay. Type of data set: cell-based. The method, then:
as §1
(§2) The CCK-8 (BosterBio, Pleasanton, CA, USA) and LDH (Dojindo, Rockville, MD, USA) assay kits were used to assess the cellular viability and mortality, with densities of 2 × 10^5 cells/mL and 6 × 10^5 cells/mL, respectively. Briefly, 100 µL of S2 cells at the appropriate densities were seeded in 96-well TC-treated plates and incubated for 24 h at 25 °C. […] Lysis Buffer, Triton 0.1%, and culture medium were used for controls. Viability and mortality cell assays were realized separately and in triplicates according to manufacturer’s instructions. The absorbances were measured using a BioTek Cytation 1 microplate reader (Agilent, Santa Clara, CA, USA) (i.e., 450 nm and 490 nm for CCK-8 and LDH assays, respectively). The percentages of living or dead cells were then calculated according to manufacturer’s recommendations.
(Formazan colour is commonly taken as a measure of viable cells.)

The subject of a further data set is L. caesar. Nature of the data set: Ingestion assay on blowflies. It counts as in vivo, Lucilia caesar. As to the method: (§3) We used the same protocol used in Guo et al. for the ingestion assays with flies (L. caesar and D. melanogaster). Briefly, flies were placed in 2 mL microcentrifuge tubes right after hatching and were individually fed with 3 µL of 50% w/v sucrose solution (negative control) or sucrose solution containing the toxin. They were then kept at 25 °C. Mortality was recorded at 1, 2, 4, 24, 48, and 72 h after exposure to the tested compound. The surviving flies received 3 µL of 50% w/v sucrose solution without peptide each day until the end of the experiment. For each test, ten flies were used per treatment and each of them was replicated three times.

For another data set, the system named is A. pisum. Nature of the data set: Feeding experiment on aphids. It counts as in vivo, Acyrthosiphon pisum. As to conditions: artificial diet with 500 μg/mL and 1 mg/mL, seven days. As to the method:
For the feeding experiments on aphids, one-day-old aphids (corresponding to the first-instar nymphs N1) were placed for seven days in feeding chambers on 48 μL of a nutritive artificial diet specifically developed for A. pisum feeding, and development was completed with or without the peptide U11. The diets were changed after three days to avoid contamination. Ten N1 were deposited in the feeding chamber and three replicates were performed for each bioassay. Aphids’ mortality was assessed every day and compared between the different diets using a GLM linear regression model after observation of the residuals with a significance level of 5% on the R Studio software. Survival of aphids on two diets, completed, respectively, with U11 at 500 μg/mL and 1 mg/mL, was followed during seven days.

A further data set relates to D. melanogaster. The data set is described as follows: Ingestion assay on Drosophila. As to conditions: fed at high doses in 50% sucrose (Figure S2). It counts as in vivo. The method, then: as §3
In data set [6] the test system is blowfly Lucilia caesar. Nature of the data set: Blowfly paralytic assay, intrathoracic injection. It counts as in vivo. As to conditions: L. caesar; for PD50 [1 h]: 1 h post injection, mean ± SEM, n = 3, ten flies per dose. The method, then: (§4) In this study, we screened the neurotoxic activity of U11 when injected into a panel of beneficial and pest insects such as honeybees, blowflies, and aphids. Blowfly is a dipteran model commonly used to evaluate the insecticidal potency of venom peptides. Blowfly maggots (Lucilia caesar) were bought from a fisheries shop (Euroloisir81, Lescure-d’Albigeois, France) and were kept at 25 °C until hatching. Flies 1–4 days post hatching were used for the injection assays. Honeybee (Apis mellifera) is a model of choice to assess the impact of a toxin against beneficial insects such as pollinators. The honeybee colonies used in this study belong to the Buckfast breed and were maintained at the University Champollion campus in Albi. Adult foraging honeybees were individually isolated in plastic vials and immediately injected. Assays on blowflies and honeybees were conducted by lateral intrathoracic injection of peptides dissolved in ultra-pure water at several concentrations (from 0.005 to 0.52 mM for L. caesar and from 0.002 to 1 mM for A. mellifera) by using a 1.0 mL Hamilton Syringe (1000 Series Gastight, Hamilton Company, Reno, NV, USA) with a fixed 25 gauge needle attached to an Arnold hand microapplicator (Burkard Manufacturing Co., Ltd., Rickmansworth, UK). Each fly/bee received 1 µL of peptide solution and was individually housed in a 2 mL tube with 3 µL of 5% glucose solution. Paralytic activity was monitored at 1 h and 24 h after injection while lethality was monitored only at 24 h. […] Ten flies/honeybees were used for each toxicity experiment and for the appropriate control (ultrapure water solution), and the experiment was repeated three times for each dose. Dose–response data were analyzed as detailed by Touchard et al.. The pea aphids A. pisum used in this study were obtained from a long-established parthenogenetic clone (LL01). Aphids were kept on young broad bean plants (Vicia faba, L. cv. Aquadulce) at 21 °C with a photoperiod of 16 h light 8 h dark, allowing us to maintain them as strictly parthenogenetic matrilines. To produce synchronized apterous nymphs, winged adults were allowed to reproduce on seedlings for 24 h. The resulting synchronized nymphs were reared for 9 days on plants before the beginning of the experiments (peptide injection or feeding). For the injection experiment, we used four groups of synchronized A9 aphids (30 per group): (i) non-injected aphids, (ii) aphids injected with sterilized ultra-pure water (injection control), (iii) aphids injected with PA1b inactivated peptide (non-toxic peptide injection control), and (iv) aphids injected with the U11 peptide. […] Aphids were monitored daily for 7 days after injection and their survival and behavior regularly checked, following the protocol developed by Ribeiro Lopes et al.. […]

The subject of data set [7] is S2 cells. Nature of the data set: Membrane potential recorded by DiBAC4(3). It counts as cell-based, Drosophila. Particulars: 10 µM, KCl 50 mM. The method, then: as §1
Variations of membrane potential were assessed using the fluorescent dye bis-(1,3-dibutybarbituric acid) (DiBAC4(3)) (Thermofisher) using a IX73 fluorescence microscope (Olympus, Japan). Then, 6 × 10^5 S2 cells were plated on 0.01% Poly-L-Lysine (Sigma-Aldrich) coated glass-bottom Petri dishes and allowed to adhere for 24 h before experiments. […] Baseline was recorded for 1 min before addition of KCl (50 Mm final) to achieve membrane depolarization. The results are presented as transformed data to obtain the relative fluorescence to the time of addition of the stimulus, according to the equation: Fx = Ft/F0, where Ft represents the fluorescent value at a specific time point and F0 represents the mean basal fluorescent value. To compare the different conditions, areas under the curve (AUC) after KCl addition were calculated (between 60 and 300 s).

For data set [8], the system named is aphids (Acyrthosiphon pisum). The data set is described as follows: Aphid intra-abdominal injection assay. Type of data set: in vivo. As to conditions: A. pisum. As to the method: as §4, with “(LL01).” for “(LL01). Aphids were kept on young broad bean plants (Vicia faba, L. cv. Aquadulce) at 21 °C with a photoperiod of 16 h light 8 h dark, allowing us to maintain them as strictly parthenogenetic matrilines. To produce synchronized apterous nymphs, winged adults were allowed to reproduce on seedlings for 24 h. The resulting synchronized nymphs were reared for 9 days on plants before the beginning of the experiments (peptide injection or feeding). For the injection experiment, we used four groups of synchronized A9 aphids (30 per group): (i) non-injected aphids, (ii) aphids injected with sterilized ultra-pure water (injection control), (iii) aphids injected with PA1b inactivated peptide (non-toxic peptide injection control), and (iv) aphids injected with the U11 peptide.”

For a further data set, the system named is A. mellifera. Nature of the data set: Ingestion assay on honeybees. Particulars: force fed 5 µL sucrose solution with 8 mg/mL (110 nmol/g bee). It counts as in vivo, Apis mellifera. The method, then:
The ingestion assays on honeybees were conducted by placing bees in 850 mL plastic storage boxes with 2 mL microcentrifuge tubes filled with 50% w/v sucrose solution and previously drilled for bee access. The boxes were kept at 25 °C in the dark and the bees were allowed to feed ad libitum on the sucrose solution. For each test, ten bees were used per treatment, and each of them was replicated three times. Lethality was recorded at 1, 2, 4, 24, and 48 h after exposure to U11 peptide.
For oral toxicity assays, insects were starved for 2 h prior testing. Bees were individually force fed with 5 µL of 50% w/v sucrose solution (negative control), or sucrose solution containing the toxin (8 mg/mL–110 nmol/g bee).

Data set [9] has as its system S2 Drosophila embryonic cell line. The data set is described as follows: LDH cytotoxicity assay. Type of data set: cell-based. Particulars: S2 cells, 5 and 50 µM, 1 h and 24 h of incubation. As to the method:
as §1, §2

Read-outs that look alike come from different tables or passages of the source.

As to bicarinalin [M-Tb1a], the Cytotoxicity result in [1] is “Yes”. Further, the “PD50 [1 h]” value in the data set with blowfly Lucilia caesar [2] is 12.0 ± 1.0 nmol/g.
In the case of U11-MYRTX-Tb1a, the “PD50 1 h post injection” value in data set [3] (1 h post injection) turned out to be 1.36 ± 0.08 nmol/g. Besides, the “PD50 24 h post injection” value in data set [3] (24 h post injection) came to 1.11 ± 0.09 nmol/g; in the data set with blowfly Lucilia caesar [6] (intrathoracic injection, 24 h post injection, n = 3), 2.67 ± 0.13 nmol/g. Moreover, the toxicity by ingestion entry is recorded as “unaffected” in the data set on Sitophilus oryzae; “active by ingestion” in the data set with L. caesar (fed at high doses in 50% sucrose (Figure S2)); “unaffected” in the data set on A. pisum; “active by ingestion” in the data set with D. melanogaster; “unaffected” in the data set on A. mellifera. For the same substance, the “calcium mobilization (Tg response and calcium influx)” value with S2 cells [4] is “No effect”. Moreover, the “cytotoxicity, CCK-8 assay” value in [5] (S2 cells, 5 and 50 µM, 1 h and 24 h of incubation) is “not cytotoxic”. Further, the Cytotoxicity entry in data set [5] (Table 2, this study: CCK-8 and LDH assays on S2 cells) is reported as “No”. In addition, in the data set on L. caesar (ingestion, 8 mg/mL (350 nmol. g^−1), 24 h), the “blowflies affected 24 h post ingestion” value was found to be 60%. In addition, in the data set on blowfly Lucilia caesar [6] (intrathoracic injection of one high dose per peptide (Table 1: U8 54, U10 28, U11 27, U13 45 nmol. g^−1), 1 h, ten flies per replicate, three replicates), the “paralysis of flies 1 h after injection (screen)” value is on record as “paralysis of all flies”. The “PD50 [1 h]” value in the data set with blowfly Lucilia caesar [6] (intrathoracic injection) was found to be 1.78 ± 0.12 nmol/g; with blowfly Lucilia caesar [6] (intrathoracic injection, listed as U11-Tb1a) it was 1.8 ± 0.1 nmol/g. The “depolarization-induced increase in fluorescence intensity, less than in the control condition” value in the data set with S2 cells [7] (30 min, DiBAC4(3), NMDG buffer) came out at 33%. In the data set with S2 cells [7] (60-300 s, mean ± SEM of n = 220 cells (n = 3), control 464 ± 35), the “AUC of relative fluorescence after KCl application” value is listed as 312 ± 23. Also, the “effect on aphid fitness” value in data set [8] (injection 3.4 nmol. g^−1, monitored over 7 days (Figure S1)) was “weak effect”. The “aphids affected 24 h post injection” value in data set [8] (intra-abdominal injection, 3.4 nmol. g^−1 (46 nL of 0.25 mM), 24 h) is given as 6.6%. For the same substance, in data set [8] (intra-abdominal injection, 3.4 nmol. g^−1, 24 h), the “paralytic effect on aphids by injection” value is “weak paralytic effect”. In addition, the “cytotoxicity, LDH assay” value in data set [9] is reported as “not cytotoxic”.
